From patent publication US4251439A, “Pharmacologically active peptides” (Eli Lilly and Company, priority 1979, dated 1981)
Where a SMILES comes first, the peptide text is derived from it. Where no end group is shown, it is not given here. [ ]: non-standard residue; d: D form. Phg(4-OMe) = COc1ccc([C@H](N)C(=O)O)cc1; dPhg = N[C@@H](C(=O)O)c1ccccc1; Phg = N[C@H](C(=O)O)c1ccccc1

Test system: not given
Experiment: not given
Settings: administered parenterally; cited from earlier work

Compound	useful analgesic activity
H-Tyr-Gly-Gly-Phe-Met-OH [methionine enkephalin]	practically devoid of any useful analgesic activity

Test system: not given
Experiment: not given
Settings: in vivo; cited from earlier work

Compound	analgesic potential
Y[dA]GF[dF]-OH	limited analgesic potential

Test system: mouse
Experiment: mouse hot plate test (analgesic activity)
Type: in vivo
Settings: subcutaneous, hot plate 52° C., 15 minutes after administration, latency until jump
Description: In this test, a mouse is placed inside an upright acrylic cylinder comprising, as its base, a hot plate surface which is maintained at 52° C. The mouse is given, orally or by subcutaneous injection, a predetermined amount of test compound dissolved or suspended in a suitable carrier, and, 15 minutes after administration of the test compound, the mouse is placed on the hot plate surface. The latency in seconds until the mouse jumps from the hot plate surface is measured. […] This must occur in a dose range which produces no motor incoordination or incapacitation. The following Table records the ED50 results obtained from this test.

Compound	Analgesic Activity, Hot Plate Test ED50
COc1ccc([C@H](NC(=O)[C@H](Cc2ccccc2)NC(=O)CNC(=O)[C@@H](C)NC(=O)[C@@H](N)Cc2ccc(O)cc2)C(N)=O)cc1 [Example 1, L-Tyrosyl-D-alanyl-glycyl-L-phenylalanyl-L-p-methoxyphenylglycinamide] (H-Y[dA]GF[Phg(4-OMe)]-NH2)	3.14 mg/kg
CCCN(C(=O)CNC(=O)[C@@H](C)NC(=O)[C@@H](N)Cc1ccc(O)cc1)[C@@H](Cc1ccccc1)C(=O)N[C@H](C(N)=O)c1ccccc1 [Example 9, L-Tyrosyl-D-alanyl-glycyl-L-(N-n-propyl)phenylalanyl-L-phenylglycinamide]	0.15 mg/kg
C[C@@H](NC(=O)[C@@H](N)Cc1ccc(O)cc1)C(=O)NCC(=O)N(C)[C@@H](Cc1ccccc1)C(=O)N[C@H](C(N)=O)c1ccccc1 [Example 6, L-Tyrosyl-D-alanyl-glycyl-L-(N-methyl)phenylalanyl-L-phenylglycinamide]	0.19 mg/kg
L-Tyrosyl-D-alanyl-glycyl-L-phenylalanyl-D-p-hydroxyphenylglycinamide [Example 4]	1.0 mg/kg
C[C@@H](NC(=O)[C@@H](N)Cc1ccc(O)cc1)C(=O)NCC(=O)N(C)[C@@H](Cc1ccccc1)C(=O)N[C@@H](C(N)=O)c1ccccc1 [Example 7, L-Tyrosyl-D-alanyl-glycyl-L-(N-methyl)phenylalanyl-D-phenylglycinamide]	3.82 mg/kg
C[C@@H](NC(=O)[C@@H](N)Cc1ccc(O)cc1)C(=O)NCC(=O)N[C@@H](Cc1ccccc1)C(=O)N[C@H](C(N)=O)c1ccccc1 [Example 2, L-Tyrosyl-D-alanyl-glycyl-L-phenylalanyl-L-phenylglycinamide] (H-Y[dA]GF[Phg]-NH2)	0.40 mg/kg
C[C@@H](NC(=O)[C@@H](N)Cc1ccc(O)cc1)C(=O)NCC(=O)N[C@@H](Cc1ccccc1)C(=O)N[C@@H](C(N)=O)c1ccccc1 [Example 3, L-Tyrosyl-D-alanyl-glycyl-L-phenylalanyl-D-phenylglycinamide] (H-Y[dA]GF[dPhg]-NH2)	0.23 mg/kg
CCN(C(=O)CNC(=O)[C@@H](C)NC(=O)[C@@H](N)Cc1ccc(O)cc1)[C@@H](Cc1ccccc1)C(=O)N[C@H](C(N)=O)c1ccccc1 [Example 8, L-Tyrosyl-D-alanyl-glycyl-L-(N-ethyl)phenylalanyl-L-phenylglycinamide]	0.064 mg/kg
L-Tyrosyl-D-alanyl-glycyl-L-phenylalanyl-D-phenylglycin-N-methylamide [Example 5]	0.74 mg/kg

Test system: mice
Experiment: not given
Settings: administration intracerebroventricularly; cited from earlier work

Compound	analgesic activity
H-Tyr-Gly-Gly-Phe-Met-OH [methionine enkephalin]	exhibit analgesic activity
